Laboratory results published in patent US20250172543A1, “HIGH DENSITY 3D HEPATOCYTE SPHEROID PLATFORM FOR DRUG ADME STUDIES” (Discovery Life Sciences, LLC, priority 2018, published 2025).
Read-outs that look alike come from different tables or passages of the source.

Columns and labels:
[1] = system: PHHs grown in suspension format; test: Clearance measurement with PHHs grown in suspension format; conditions: FIGS. 8A-I
[2] = system: 3D primary human hepatocyte (PHH) high density spheroids; test: 3D PHH high density spheroid drug clearance assay; assay type: in vitro ADME; conditions: 0.1 μM substrate, 6-well spheroid insert, in vivo hepatic clearance predicted from in vitro Clint by well stirred model
Protocol: Plating PHHs onto 6-well high density spheroid insert (−700 microwells/insert): PHH were thawed as standard procedure and resuspended in WEM plating medium. PHH cells were counted and the cell density was adjusted to 0.35e6/ml using WEM plating medium. For plating PHHs, the pipet aid was set at low disperse speed. Right before plating, a 5 mL pipet was used to remove most medium from pre-wetted inserts. Even cell suspensions were prepared by gently pipetting up and down. Using a 5 mL pipet, with the position the tip against the side wall at the bottom, 2 mL of cell suspension (700K cells, -1000 cells/microwell) was added to a 6-well spheroid insert. The plate was allowed to sit for 15-20 min in the hood. The plates were checked under a microscope with a 4x objective, to ensure that that a similar number of cells have settled into each microwell.
Half medium change with WME+medium: The pipet aid was at low disperse speed. Using a 5 mL pipet, 1 mL of old medium was slowly from each insert. A 1000 μL pipet tip was positioned against the top part of the insert sidewall, and 1 mL pre-warmed WME+medium was slowly added with the medium being allowed to flow down the sidewall. After waiting 5-10 minutes between each half medium change, the half medium change was repeated 3 more times. The PHHs were checked under a microscope for spheroid formation.
Incubate the candidate compound(s) to be tested for clearance with the cultured spheroids: The pipet aid was set at low disperse speed. Using a 5 mL pipet, 1 mL of old medium was slowly removed from each insert. […] After 5-10 minutes, the culture was placed back to 37° C. incubator. The timer for incubation was started at this point.
Sampling: 40 μL/well stop solutions Labetalol (0.2 uM IN 0.05% FA/50%ACN) was aliquoted in an assay plate and kept on ice. At the desired assay incubation time (0 hr, 1 hr, 2 hrs, 4 hrs, 6 hrs, 12 hrs, 24 hrs, 36 hrs, 48 hrs, 3 days, 4 days, 5 days, 6 days, 7 days, 8 days, 9 days, 10 days, 11 days, 12 days, 13 days 14 days, 3 weeks, 4 weeks, or any value or range there between), 40 μL sample were drawn from each incubation well, mixed well with stop solution, and stored at −80° C.
LC/MS analysis: The amount of the candidate compound was measured using liquid chromatography/mass spectrometry, as is known in the art.
Calculate the elimination rate constant (ke1): The percentage of the candidate compound remaining in the culture was calculated by dividing the mass spectrometry peak area ratio at certain incubation times to that at time zero, as is known in the art. The natural logarithm of the percentage of the remaining candidate compound was plotted against time, and the kelwas calculated as the absolute value from the slope.
Calculate the depletion half-lives of the candidate compounds: Once the kel was determined for the candidate compound, the depletion half-life of the candidate compound was determined by Equation 1, as is known in the art.
Calculate the;n vitro clearance (Clint) of the candidate compound: The in vitro clearance of the candidate compounds was calculated using the in vitro half-lives from Equation 1 using the scaling factors of Equation 2, as is known in the art.
Calculate predicted in vivo hepatic clearance (CLh): The in vivo hepatic clearance was calculated from the in vitro clearance determined by Equation 2 using the well stirred model Equation 3, as is known in the art.

[3] = actual in vivo clearance for comparison; cited from earlier work
[4] = system: PHHs grown in suspension format; conditions: human

Compound | Measurability of clearance in suspension hepatocytes [1] | Predicted CLh, 3D HD Spheroids [2] | In Vivo CLnonrenal [3] | Measurability of clearance in suspension hepatocytes [4]
Cc1nnc2n1-c1ccc(Cl)cc1C(c1ccccc1)=NC2 [Alprazolam] | unable to measure | 0.45 | 0.61 | –
CN1C(=O)CN=C(c2ccccc2)c2cc(Cl)ccc21 [Diazepam] | – | – | 0.53 | –
CCC1=C(C)CN(C(=O)NCCc2ccc(S(=O)(=O)NC(=O)N[C@H]3CC[C@H](C)CC3)cc2)C1=O [Glimepiride] | – | 0.04 | 1.12 | unable to measure
C[C@]12C=CC(=O)C=C1CC[C@@H]1[C@@H]2[C@@H](O)C[C@@]2(C)[C@H]1CC[C@]2(O)C(=O)CO [Prednisolone] | – | 0.60 | 1.44 | unable to measure
CCCCNC(=O)NS(=O)(=O)c1ccc(C)cc1 [Tolbutamide] | – | 0.22 | – | unable to measure
CC(=O)CC(c1ccccc1)c1c(O)c2ccccc2oc1=O (centres unmarked) [Warfarin] | – | 0.01 | – | unable to measure
